Assay results as given in patent US10227339B2, “Salt form and crystal form of 1,2,5-thiadiazolidin-1,1-dioxide, preparation method thereof and intermediate” (JIANGSU KANION PARMACEUTICAL CO. LTD, priority 2015, dated 2019).
In brackets after ≈: the same amount, converted by molar mass. Read-outs that look alike come from different tables or passages of the source. One block for each compound: values may come before it.

Tests used:
[1] = Solubility test of crystal form A in different solvents; assay type: physicochemical; conditions: thermodynamic from solid
Procedure: (§1) Solubility Test of Crystal Form a in Different Solvents Add 1^˜1.5 mg crystal form A of the compound 1 in volumetric flask, then single solvent or mixed solvent is added into the flask with multiple times until the solution become clear or solid particles disappear. The solubility of crystal form A in different solvents is determined thereby.

[2] = system: HFMD virus EV71; experiment: EV71 in-vitro cytopathic effect (CPE) test; assay type: cell-based; conditions: Enterovirus A, EV71, 72 h; RD cells, 3 days, CCK8 readout; read-out: EC50 by EC71 CPE test, EV71
Text: Activity Evaluation In Vitro Experimental 1: Test of EV71 In-Vitro Cytopathic Effect (CPE) Purpose of Experiment: To test the in-vitro antiviral activity and cytotoxicity of a compound to HFMD virus EV71 by means of cytopathic effect (CPE) test. Test Materials: 1. Virus strain: Shenzhen/120F1/09 2. Cell line: RD cells of human rhabdomyoma 3. Cell culture media: DMEM medium added with 10% serum, Penicillin/Streptomycin and L-Glutannine (1^×) 4. Test reagent: cellular activity test reagent CCK8 Test Method: 1. Cell inoculation: digest off the RD cells from the attached state, then dilute them with culture medium to a density of 80000/ml and inoculate 100 μl into the micro wells of the 96-well plate. 2. Dilution of Compound: Step 1: prepare the dry powder of a compound to be tested into a 10 mM solution in DMSO. Then dilute the compound by three times to eight concentration points. Dilute the reference compounds with the same method. Step 2: further dilute the diluted solution of the compound in DMSO with cell culture medium. Add 10 μl DMSO solution for each well into 240 μl culture medium. 3. Add the diluted compound solution by 50 μl each well into the 96-well plate inoculated with cells (double holes, final concentration of DMSO is 1%). 4. […] Use ELIASA to read the absorbancy at the wavelength of 450 nm and 630 nm. […]

[3] = Solubility test of crystal form B in different solvents; assay type: physicochemical; conditions: thermodynamic from solid; for solubility at 4 h: read-out: Solubility (mg/mL) 4 h; for solubility at 24 h: read-out: Solubility (mg/mL) 24 h
Procedure: as §1, with “Form B” for “Form a”, “form B” for “form A”, “compound 2” for “compound 1”

[4] = aqueous buffer, pH 3.5 buffer solution
[5] = aqueous buffer, pH 4.5 buffer solution
[6] = aqueous buffer, pH 5.5 buffer solution
[7] = aqueous buffer, pH 6.5 buffer solution
[8] = aqueous buffer, pH 6.8 buffer solution
[9] = aqueous buffer, pH 7.5 buffer solution
[10] = saline or isotonic, normal saline
[11] = simulated gastric fluid, 0.01N HCl
[12] = simulated gastric fluid, 0.1N HCl

solubility ([1]; aqueous with cosolvent or surfactant or cyclodextrin, solvent: Acetone-water (3:1)): < 2240 µg/mL | solubility ([1]; aqueous with cosolvent or surfactant or cyclodextrin, solvent: Ethanol-water (3:1)): < 2320 µg/mL | solubility ([1]; aqueous with cosolvent or surfactant or cyclodextrin, solvent: Methanol-water (3:1)): < 2070 µg/mL | solubility ([1]; organic solvent or mixture, solvent: 1,4-dioxane): 11800 to 13200 µg/mL (≈ 23.5 to 26.3 mM) | solubility ([1]; organic solvent or mixture, solvent: 2-Methyltetrahydrofuran): < 2180 µg/mL | solubility ([1]; organic solvent or mixture, solvent: acetone): 5580 to 7430 µg/mL (≈ 11.1 to 14.8 mM) | solubility ([1]; organic solvent or mixture, solvent: ethanol): < 2090 µg/mL | solubility ([1]; organic solvent or mixture, solvent: ethyl acetate): < 2130 µg/mL | solubility ([1]; organic solvent or mixture, solvent: methanol): < 1980 µg/mL | EC50 [2]: ≤ 10 nM
SMILES: CCn1nnc(-c2ccc(OCCC(C)(C)CCN3CCN(c4ccnc(N)c4)S3(=O)=O)nc2)n1 [Compound 1]

solubility at 4 h [3, 4]: 232 mg/mL (≈ 463 mM) | solubility at 24 h [3, 4]: 186 mg/mL (≈ 370 mM) | solubility at 4 h [3, 5]: 6.12 mg/mL (≈ 12.2 mM) | solubility at 24 h [3, 5]: 4.54 mg/mL (≈ 9.05 mM) | solubility at 4 h [3, 6]: < 0.1 mg/mL | solubility at 24 h [3, 6]: < 0.1 mg/mL | solubility at 4 h [3, 7]: < 0.1 mg/mL | solubility at 24 h [3, 7]: < 0.1 mg/mL | solubility at 4 h [3, 8]: < 0.1 mg/mL | solubility at 24 h [3, 8]: < 0.1 mg/mL | solubility at 4 h [3, 9]: < 0.1 mg/mL | solubility at 24 h [3, 9]: < 0.1 mg/mL | solubility at 4 h [3, 10]: 42.9 mg/mL (≈ 85.5 mM) | solubility at 24 h [3, 10]: 43.4 mg/mL (≈ 86.6 mM) | solubility at 4 h [3, 11]: > 998 mg/mL | solubility at 24 h [3, 11]: > 986 mg/mL | solubility at 4 h [3, 12]: > 873 mg/mL | solubility at 24 h [3, 12]: > 935 mg/mL | solubility at 4 h ([3]; water): 416 mg/mL (≈ 829 mM) | solubility at 24 h ([3]; water): 346 mg/mL (≈ 690 mM)
SMILES: CCn1nnc(-c2ccc(OCCC(C)(C)CCN3CCN(c4ccnc(N)c4)S3(=O)=O)nc2)n1 [Compound 2]
